Patent publication US10251395B2, “Substituted furano-/thienocycloalkylamino-2-pyrimidine derivatives and use thereof for controlling undesired plant growth” (Bayer CropScience Aktiengesellschaft, priority 2015, dated 2019)

Columns and labels:
Type in all cases: in vivo
Polygonum convolvulus [1] = assay: Post-emergence herbicidal effect; conditions: assessed visually after about 3 weeks vs untreated controls
How it was run: (§1)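 Seedlings at the one-leaf stage, about 2 to 3 weeks old, are sprayed on their foliage with compound suspended or emulsified in water containing 0.2% wetting agent. After roughly 3 weeks in the greenhouse, injury is estimated visually on a 0 to 100% scale.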

Abutilon theophrasti [2] = assay: Post-emergence herbicidal effect; conditions: assessed visually after about 3 weeks vs untreated controls
How it was run: as §1

Avena fatua [3] = assay: Post-emergence herbicidal effect; conditions: 320 g/ha, assessed visually after about 3 weeks vs untreated controls
How it was run: as §1

Viola tricolor [4] = assay: Post-emergence herbicidal effect; conditions: assessed visually after about 3 weeks vs untreated controls
How it was run: as §1

Ipomoea purpurea = assay: Post-emergence herbicidal effect; conditions: assessed visually after about 3 weeks vs untreated controls
How it was run: as §1

Stellaria media [5] = assay: Post-emergence herbicidal effect; conditions: assessed visually after about 3 weeks vs untreated controls
How it was run: as §1

Setaria viridis [6] = assay: Post-emergence herbicidal effect; conditions: assessed visually after about 3 weeks vs untreated controls
How it was run: as §1

Veronica persica [7] = assay: Post-emergence herbicidal effect; conditions: assessed visually after about 3 weeks vs untreated controls
How it was run: as §1

Echinochloa crus-galli [8] = assay: Post-emergence herbicidal effect; conditions: assessed visually after about 3 weeks vs untreated controls
How it was run: as §1

Matricaria inodora [9] = assay: Post-emergence herbicidal effect; conditions: assessed visually after about 3 weeks vs untreated controls
How it was run: as §1

Amaranthus retroflexus [10] = assay: Post-emergence herbicidal effect; conditions: assessed visually after about 3 weeks vs untreated controls
How it was run: as §1

Alopecurus myosuroides [11] = assay: Post-emergence herbicidal effect; conditions: 320 g/ha, assessed visually after about 3 weeks vs untreated controls
How it was run: as §1

Polygonum convolvulus [12] = assay: Pre-emergence herbicidal effect; conditions: scored visually after 3 weeks
How it was run: (§2)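 Pre-emergence soil-surface application of compound as WP or EC in water (600 to 800 L/ha, 0.2% wetting agent) to freshly sown, soil-covered seeds in sandy loam. After 3 weeks under greenhouse conditions, percent activity rated by eye versus untreated plants, from 0% (no effect) to 100% (death).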

Abutilon theophrasti [13] = assay: Pre-emergence herbicidal effect; conditions: Dosage 80 g/ha, scored visually after 3 weeks
How it was run: as §2

Avena fatua [14] = assay: Pre-emergence herbicidal effect; conditions: scored visually after 3 weeks
How it was run: as §2

Viola tricolor [15] = assay: Pre-emergence herbicidal effect; conditions: scored visually after 3 weeks
How it was run: as §2

Stellaria media [16] = assay: Pre-emergence herbicidal effect; conditions: scored visually after 3 weeks
How it was run: as §2

Setaria viridis [17] = assay: Pre-emergence herbicidal effect; conditions: scored visually after 3 weeks
How it was run: as §2

Veronica persica [18] = assay: Pre-emergence herbicidal effect; conditions: scored visually after 3 weeks
How it was run: as §2

Echinochloa crus-galli [19] = assay: Pre-emergence herbicidal effect; conditions: scored visually after 3 weeks
How it was run: as §2

Matricaria inodora [20] = assay: Pre-emergence herbicidal effect; conditions: scored visually after 3 weeks
How it was run: as §2

Lolium multiflorum = assay: Pre-emergence herbicidal effect; conditions: scored visually after 3 weeks
How it was run: as §2

Amaranthus retroflexus [21] = assay: Pre-emergence herbicidal effect; conditions: scored visually after 3 weeks
How it was run: as §2

Alopecurus myosuroides [22] = assay: Pre-emergence herbicidal effect; conditions: scored visually after 3 weeks
How it was run: as §2

What does the source list for Cc1cc2c(s1)CCCC2Nc1ncc(C(F)(F)F)c(N)n1 (racemic) [compound 11]?
post-emergence efficacy POLCO (Polygonum convolvulus [1]; 80 g/ha): 90%; post-emergence efficacy POLCO (Polygonum convolvulus [1]; 320 g/ha): 90%; post-emergence efficacy ABUTH (Abutilon theophrasti [2]; 80 g/ha): 100%; post-emergence efficacy ABUTH (Abutilon theophrasti [2]; 320 g/ha): 100%; post-emergence efficacy AVEFA (Avena fatua [3]): 80%; post-emergence efficacy VIOTR (Viola tricolor [4]; 80 g/ha): 100%; post-emergence efficacy VIOTR (Viola tricolor [4]; 320 g/ha): 100%; post-emergence efficacy PHBPU (Ipomoea purpurea; 80 g/ha): 90%; post-emergence efficacy PHBPU (Ipomoea purpurea; 320 g/ha): 90%; post-emergence efficacy STEME (Stellaria media [5]; 80 g/ha): 90%; post-emergence efficacy STEME (Stellaria media [5]; 320 g/ha): 100%; post-emergence efficacy SETVI (Setaria viridis [6]; 80 g/ha): 90%; post-emergence efficacy SETVI (Setaria viridis [6]; 320 g/ha): 90%; post-emergence efficacy VERPE (Veronica persica [7]; 80 g/ha): 80%; post-emergence efficacy VERPE (Veronica persica [7]; 320 g/ha): 90%; post-emergence efficacy ECHCG (Echinochloa crus-galli [8]; 80 g/ha): 100%; post-emergence efficacy ECHCG (Echinochloa crus-galli [8]; 320 g/ha): 100%; post-emergence efficacy MATIN (Matricaria inodora [9]; 80 g/ha): 90%; post-emergence efficacy MATIN (Matricaria inodora [9]; 320 g/ha): 100%; post-emergence efficacy AMARE (Amaranthus retroflexus [10]; 80 g/ha): 90%; post-emergence efficacy AMARE (Amaranthus retroflexus [10]; 320 g/ha): 90%; post-emergence efficacy ALOMY (Alopecurus myosuroides [11]): 90%; POLCO pre-emergence efficacy (herbicidal activity) (Polygonum convolvulus [12]; Dosage 80 g/ha): 100%; POLCO pre-emergence efficacy (herbicidal activity) (Polygonum convolvulus [12]; Dosage 320 g/ha): 100%; ABUTH pre-emergence efficacy (herbicidal activity) (Abutilon theophrasti [13]): 100%; AVEFA pre-emergence efficacy (herbicidal activity) (Avena fatua [14]; Dosage 80 g/ha): 60%; AVEFA pre-emergence efficacy (herbicidal activity) (Avena fatua [14]; Dosage 320 g/ha): 90%; VIOTR pre-emergence efficacy (herbicidal activity) (Viola tricolor [15]; Dosage 80 g/ha): 100%; VIOTR pre-emergence efficacy (herbicidal activity) (Viola tricolor [15]; Dosage 320 g/ha): 100%; STEME pre-emergence efficacy (herbicidal activity) (Stellaria media [16]; Dosage 80 g/ha): 100%; STEME pre-emergence efficacy (herbicidal activity) (Stellaria media [16]; Dosage 320 g/ha): 100%; SETVI pre-emergence efficacy (herbicidal activity) (Setaria viridis [17]; Dosage 80 g/ha): 100%; SETVI pre-emergence efficacy (herbicidal activity) (Setaria viridis [17]; Dosage 320 g/ha): 100%; VERPE pre-emergence efficacy (herbicidal activity) (Veronica persica [18]; Dosage 80 g/ha): 100%; VERPE pre-emergence efficacy (herbicidal activity) (Veronica persica [18]; Dosage 320 g/ha): 100%; ECHCG pre-emergence efficacy (herbicidal activity) (Echinochloa crus-galli [19]; Dosage 80 g/ha): 100%; ECHCG pre-emergence efficacy (herbicidal activity) (Echinochloa crus-galli [19]; Dosage 320 g/ha): 100%; MATIN pre-emergence efficacy (herbicidal activity) (Matricaria inodora [20]; Dosage 80 g/ha): 100%; MATIN pre-emergence efficacy (herbicidal activity) (Matricaria inodora [20]; Dosage 320 g/ha): 100%; LOLMU pre-emergence efficacy (herbicidal activity) (Lolium multiflorum; Dosage 80 g/ha): 100%; LOLMU pre-emergence efficacy (herbicidal activity) (Lolium multiflorum; Dosage 320 g/ha): 100%; AMARE pre-emergence efficacy (herbicidal activity) (Amaranthus retroflexus [21]; Dosage 80 g/ha): 100%; AMARE pre-emergence efficacy (herbicidal activity) (Amaranthus retroflexus [21]; Dosage 320 g/ha): 100%; ALOMY pre-emergence efficacy (herbicidal activity) (Alopecurus myosuroides [22]; Dosage 80 g/ha): 90%; ALOMY pre-emergence efficacy (herbicidal activity) (Alopecurus myosuroides [22]; Dosage 320 g/ha): 100%
